Reference: PMC5562305, “Impact of novel palmitoylated prolactin-releasing peptide analogs on metabolic changes in mice with diet-induced obesity” (PLoS ONE, 2017)
Starred links: 1 amine or outer side, 2 acyl side, 3 side chain; linkers in the order of their positions; H or OH if unused. Residues, ends and D or L forms follow the SMILES beside them. Groups on a side chain read outwards from the residue. *: point of attachment. γGlu = O=C(O)[C@H](CCC(=O)[*:2])N[*:1]; Palmitoyl = CCCCCCCCCCCCCCCC(=O)*

Test system: urinary metabolites
Test: NMR-based metabolomics of urine of DIO mice
Format: in vivo, C57BL/6 mice
Set-up: key to DMA, Mean / DMG, Mean / MA, Mean / TMA, Mean / acetate, Mean / allantoin, Mean / carnitine, Mean / choline, Mean / cis-aconitate, Mean / creatine+creatinine, Mean / creatine, Mean / creatinine, Mean / ethanolamine, Mean / formate, Mean / galactose, Mean / glucose, Mean / glycine, Mean / lactate, Mean / succinate, Mean / vinylacetylglycine, Mean: TSA-normalized intensity of the metabolite's representative NMR signal
Details: urine NMR signal, DIO mice
Experimental: Urine samples for NMR-based metabolomics were collected prior to the start of the interventions and at the end of the experiment. For overnight urine collection (from 5 pm to 8 am), the mice were housed in individual metabolic cages (Tecniplast, Buguggiate, Italy) without access to food. Samples were collected with the addition of NaN3 and stored at -80°C until NMR analysis.
The urine samples were thawed at room temperature and centrifuged at 13 684 x g for 5 min prior to the NMR experiments. A 200-μl aliquot of supernatant was diluted with 340 μl of H2O mixed with 60 μl of phosphate buffer (1.5 M KH2PO4 in D2O containing 2 mM NaN3 and 0.1% trimethylsilyl propionic acid (TSP), pH 7.4) and transferred to a 5-mm NMR tube. The NMR data were acquired with a 600 MHz Bruker Avance III spectrometer (Bruker BioSpin, Rheinstetten, Germany) equipped with a 5-mm TCI cryogenic probe head. All of the experiments were performed at 300 K. Automatic tuning, matching, shimming and adjusting of the 90° pulse length were performed for each sample.
As mouse urine naturally contains urinary proteins, the NMR spectra were acquired using a Carr-Purcell-Meiboom-Gill (CPMG) pulse sequence with water presaturation (Bruker pulse sequence cpmgpr1d) to eliminate the strong protein background. […] For better metabolite identification, a short J-resolved experiment with presaturation (NS = 2, SW = 16 ppm, TD = 8k, number of increments = 40, SW = 78.125 Hz in the indirect dimension, and relaxation delay = 2 s) was executed for all samples. Additional two-dimensional ^1H-^1H correlation spectroscopy (COSY) and ^1H-^13C heteronuclear multiple-quantum correlation (HMQC) experiments (Bruker pulse sequences cosygpprqf and hmqcphpr) were performed for selected samples.
The acquired data were processed using Topspin 3.2 software (Bruker BioSpin, Rheinstetten, Germany). Line broadening of 0.3 Hz was applied on free induction decays (FIDs) prior to Fourier transformation. The spectra were automatically phased, baseline corrected and referenced to the signal of TSP (0.00 ppm).
The assignment of individual metabolites was achieved by comparing the proton spectra with the spectra of pure metabolites using Chenomx NMR Suite 7.6 (Chenomx Inc., Edmonton, AB, Canada), the HMDB database and previously published metabolomic data. The identification of metabolites was supported through J-resolved and COSY experiments and, if possible, confirmed using carbon chemical shifts extracted from the HMQC spectra.
For quantitation of individual metabolites, the CPMG spectra were uniformly binned in the range of 0.10–10.00 ppm to 0.01-ppm intervals using AMIX software (Bruker BioSpin, Rheinstetten, Germany). This procedure reduced the dimensionality of the data, eliminated chemical shift variations and thus simplified the reproducible automatic quantification. Regions corresponding to water (4.60–4.90 ppm) and urea (5.60–6.00 ppm) were removed prior to analysis. As the dilutions of the original urine samples differed (due to the differences in water intake during urine collection), all of the spectra were normalized to the total spectral area (TSA). For each identified metabolite, one representative signal was chosen and then quantified as the sum of appropriate adjacent 0.01-ppm bins to cover the whole signal width. The metabolite concentration was expressed as the TSA-normalized intensity of the respective signal. For selection of an appropriate statistical method (parametric or non-parametric) the Lilliefors test of normality was performed. […] Metabolite alterations with a P < 0.05 were considered statistically significant. Statistical analysis was performed using Matlab software (“MATLAB version 8.6 (R2015b). Natick, Massachusetts: The MathWorks Inc., 2015.,” n.d.). […]

CCCCCCCCCCCCCCCC(=O)N[C@@H](CCC(=O)NCCCC[C@H](NC(=O)[C@@H](NC(=O)[C@H](CCC(=O)O)NC(=O)[C@H](CCSC)NC(=O)[C@H](CO)NC(=O)[C@H](Cc1c[nH]cn1)NC(=O)[C@H](CCCNC(=N)N)NC(=O)[C@H](Cc1c[nH]cn1)NC(=O)[C@@H](NC(=O)[C@H](CCCNC(=N)N)NC(=O)[C@@H](N)CO)[C@@H](C)O)[C@@H](C)CC)C(=O)N[C@H](C(=O)N1CCC[C@H]1C(=O)N[C@@H](CC(=O)O)C(=O)N[C@H](C(=O)N[C@@H](CC(N)=O)C(=O)N1CCC[C@H]1C(=O)N[C@@H](C)C(=O)N[C@@H](Cc1c[nH]c2ccccc12)C(=O)N[C@@H](Cc1ccc(O)cc1)C(=O)N[C@@H](C)C(=O)N[C@@H](CO)C(=O)N[C@@H](CCCNC(=N)N)C(=O)NCC(=O)N[C@H](C(=O)N[C@@H](CCCNC(=N)N)C(=O)N1CCC[C@H]1C(=O)N[C@H](C(=O)NCC(=O)N[C@@H](CCCNC(=N)N)C(=O)N[C@@H](Cc1ccccc1)C(N)=O)C(C)C)[C@@H](C)CC)[C@@H](C)CC)[C@@H](C)O)C(=O)O [analog 1] (H-SRTHRHSMEIK([γGlu-Palmitoyl])TPDINPAWYASRGIRPVGRF-NH2; N-terminus assumed)
2-OG (2.45 ppm), Saline/analog1 % (change of group mean vs saline): 0.026% | 2-OG (3.01 ppm), Saline/analog1 % (change of group mean vs saline): -0.000867% | 2-PY (8.33 ppm), Saline/analog1 % (change of group mean vs saline): -0.107% | 3-indoxylsulfate (7.51 ppm), Saline/analog1 % (change of group mean vs saline): 0.024% | 3-indoxylsulfate (7.71 ppm), Saline/analog1 % (change of group mean vs saline): 0.023% | 4-PY (7.97 ppm), Saline/analog1 % (change of group mean vs saline): -0.088% | 4-PY (8.55 ppm), Saline/analog1 % (change of group mean vs saline): -0.153% | DMA, Saline/analog1 % (change of group mean vs saline): 0.019% | MNA-Nox (8.75 ppm), Saline/analog1 % (change of group mean vs saline): -0.117% | N-carbamoylalanine (2.38 ppm), Saline/analog1 % (change of group mean vs saline): 0.020% | N-carbamoylalanine (3.31 ppm), Saline/analog1 % (change of group mean vs saline): -0.071% | N-isovalerylglycine + oxovalerate (0.92 ppm), Saline/analog1 % (change of group mean vs saline): 0.093% | TMA, Saline/analog1 % (change of group mean vs saline): -0.084% | acetate, Saline/analog1 % (change of group mean vs saline): 0.161% | allantoin, Saline/analog1 % (change of group mean vs saline): 0.042% | carnitine, Saline/analog1 % (change of group mean vs saline): 0.063% | choline, Saline/analog1 % (change of group mean vs saline): 0.027% | cis-aconitate, Saline/analog1 % (change of group mean vs saline): -0.010% | citrate (2.55 ppm), Saline/analog1 % (change of group mean vs saline): -0.078% | citrate (2.69 ppm), Saline/analog1 % (change of group mean vs saline): -0.081% | creatine+creatinine, Saline/analog1 % (change of group mean vs saline): 0.078% | creatine, Saline/analog1 % (change of group mean vs saline): -0.018% | creatinine, Saline/analog1 % (change of group mean vs saline): 0.087% | ethanolamine, Saline/analog1 % (change of group mean vs saline): -0.040% | formate, Saline/analog1 % (change of group mean vs saline): 0.026% | fumarate, Saline/analog1 % (change of group mean vs saline): -0.176% | galactose, Saline/analog1 % (change of group mean vs saline): -0.073% | glucose, Saline/analog1 % (change of group mean vs saline): -0.101% | glycine, Saline/analog1 % (change of group mean vs saline): -0.064% | hexanoylglycine + acids (0.88 ppm), Saline/analog1 % (change of group mean vs saline): 0.195% | hippurate (7.55 ppm), Saline/analog1 % (change of group mean vs saline): -0.067% | hippurate (7.64 ppm), Saline/analog1 % (change of group mean vs saline): -0.069% | hippurate (7.84 ppm), Saline/analog1 % (change of group mean vs saline): -0.067% | lactate, Saline/analog1 % (change of group mean vs saline): 0.188% | multiplet acids (1.6 ppm), Saline/analog1 % (change of group mean vs saline): 0.198% | putrescin, Saline/analog1 % (change of group mean vs saline): 0.025% | succinate, Saline/analog1 % (change of group mean vs saline): 0.118% | taurine (3.27 ppm), Saline/analog1 % (change of group mean vs saline): -0.289% | taurine (3.43 ppm), Saline/analog1 % (change of group mean vs saline): -0.352% | trigonelline (8.84 ppm), Saline/analog1 % (change of group mean vs saline): -0.128% | trigonelline (9.13 ppm), Saline/analog1 % (change of group mean vs saline): -0.163% | vinylacetylglycine, Saline/analog1 % (change of group mean vs saline): 0.197% | 2-OG (2.45 ppm), Mean (group mean): 12.062 | 2-OG (3.01 ppm), Mean (group mean): 10.231 | 2-PY (8.33 ppm), Mean (group mean): 1.038 | 3-indoxylsulfate (7.51 ppm), Mean (group mean): 1.334 | 3-indoxylsulfate (7.71 ppm), Mean (group mean): 0.788 | 4-PY (7.97 ppm), Mean (group mean): 1.650 | 4-PY (8.55 ppm), Mean (group mean): 0.491 | DMA, Mean (group mean): 5.115 | DMG, Mean (group mean): 1.908 | MA, Mean (group mean): 2.952 | MNA (8.90 ppm), Mean (group mean): 0.369 | MNA (8.97 ppm), Mean (group mean): 0.353 | MNA (9.265 ppm), Mean (group mean): 0.370 | MNA-Nox (7.75 ppm), Mean (group mean): 0.962 | MNA-Nox (8.13 ppm), Mean (group mean): 0.690 | MNA-Nox (8.49 ppm), Mean (group mean): 0.452 | MNA-Nox (8.75 ppm), Mean (group mean): 0.431 | N-carbamoylalanine (2.38 ppm), Mean (group mean): 10.982 | N-carbamoylalanine (3.31 ppm), Mean (group mean): 8.810 | N-isovalerylglycine + oxovalerate (0.92 ppm), Mean (group mean): 15.843 | TMA, Mean (group mean): 11.127 | acetate, Mean (group mean): 4.363 | allantoin, Mean (group mean): 21.031 | carnitine, Mean (group mean): 6.328 | choline, Mean (group mean): 2.023 | cis-aconitate, Mean (group mean): 8.788 | citrate (2.55 ppm), Mean (group mean): 30.039 | citrate (2.69 ppm), Mean (group mean): 27.401 | creatine+creatinine, Mean (group mean): 24.594 | creatine, Mean (group mean): 6.851 | creatinine, Mean (group mean): 12.065 | ethanolamine, Mean (group mean): 7.631 | formate, Mean (group mean): 0.204 | fumarate, Mean (group mean): 0.145 | galactose, Mean (group mean): 0.718 | glucose, Mean (group mean): 3.260 | glycine, Mean (group mean): 5.697 | hexanoylglycine + acids (0.88 ppm), Mean (group mean): 15.760 | hippurate (7.55 ppm), Mean (group mean): 4.327 | hippurate (7.64 ppm), Mean (group mean): 2.207 | hippurate (7.84 ppm), Mean (group mean): 4.594 | lactate, Mean (group mean): 7.323 | multiplet acids (1.6 ppm), Mean (group mean): 12.799 | putrescin, Mean (group mean): 9.134 | succinate, Mean (group mean): 12.041 | taurine (3.27 ppm), Mean (group mean): 18.310 | taurine (3.43 ppm), Mean (group mean): 14.649 | trigonelline (8.84 ppm), Mean (group mean): 0.272 | trigonelline (9.13 ppm), Mean (group mean): 0.107 | vinylacetylglycine, Mean (group mean): 3.595
